This note sets out measurements from US20100215759A1 (priority 2009, published 2010).

The test system of one test is old DBA/2J mice. The experiment in a line: Reduction of intraocular pressure (IOP) after application to the eye, TONOLab tonometer. The test is classed as in vivo. The note with it: for Intraocular Pressure Decrease: versus basal IOP. The source says:
The main risk factor in the glaucoma is represented by the high intraocular pressure (IOP). See for instance: Libby R. T. et al., Vis Neurosci. 2005 Sep.-Oct., 22(5):637-48 and Tomida I. et al., Br. J. Opthalmol. 2004 May, 88(5):708-13.
By using the animal model of old DBA/2J mice (see above) it has been evaluated the efficacy of the compound obtained in example 3.1 in reducing the IOP. As said, this compound has a good affinity towards the CB1 receptors in vitro (example 4) and a CB1 agonist action in vivo (example 5). The intraocular pressure has been determined by a TONOLab Tonometer (Tiolat Oy), as reported by M. E. Pease et al. in J. Glaucoma, 2006 December, 15(6):512-519. The compound was dispersed in the commercial emulsion Tocrisolve™, (Tocris), at a concentration of […] and applied to the eye of old DBA/2J mice (8-10 month age; basal IOP comprised between 19.0 and 22.5 mmHg). The applied emulsion volumes were such that the compound doses resulted, respectively, of 100 μg or 50 μg. WIN 55212-2 was dispersed in Tocrisolve™at the concentration of 5 mg/ml and was the reference cannabinoidergic compound. The determination of the ocular pressure was carried out every 30 minutes up to two hours starting from the administration. The obtained results (average of 6 measurements at each time for experimental groups of 8-10 animals for group/dose) are reported in Table 3. IOP decrease was expressed in percent with respect to the basal value.

The test system of the next test is mice. The test can be described thus: Hypothermia test in vivo (rectal temperature after i.p. administration). Particulars: for Body Temperature: 40 mg/kg i.p. The text has this:
It is known that the compounds having a cannabomimetic activity show in vivo the following effects: hypoactivity, hypothermia, analgesia and catalepsy (B. R. Martin et al., Pharmacol. Biochem. Behav.; 1991, 40, 471-478; P. B. Smith et al.; J. Pharmacol. Exp. Ther.; 1994, 270, 219-227). In order to display thermoregulating activity, the compounds acting towards the cannabinoidergic receptors must be able to pass the haematoencephalic barrier since the central site of said temperature regulating receptors is positioned in the preoptical front core of the hypothalamus (S. M. Rawls et al.; J. Pharmacol. Exp. Ther.; 2002, 303, 395-402). After treatment with CB1 agonist compounds passing the haemato-encephalic barrier, the cannabimimetic activity is evidenced by a reduction of the body temperature. CB1 antagonist compounds that pass the haemato-encephalic barrier, have no influence on the body temperature and show an antagonist activity towards the reference CB1 agonists as WIN 55.212-2, thus hindering the hypothermia induced by the latter.
The tests have been carried out in the experimental animal (mice) according to the indications of M. Rinaldi-Carmona et al. in FEBS Letters; 1994, 350, 240-244. Rectal temperature in mice was determined by an electronic thermometer inserted at a 2 mm depth. The measurements were carried out on mice acclimatized for one hour. […]
The experiment was carried out with the compound of example 3.1. Said compound was dispersed in a carrier formed of a physiological solution added with Tween 80 (3 drops). The so prepared samples were used for treating the animals at a dose of the compound of 40 mg/kg of body weight. The blank was the carrier.
Each test was repeated on ten animals: the results obtained are therefore the average of the determinations made on ten animals.

Setting [1] is: 50 μg to the eye in Tocrisolve, 30 minutes.
[2] abbreviates: 50 μg to the eye in Tocrisolve, 60 minutes.
Setting [3] is: 50 μg to the eye in Tocrisolve, 90 minutes.
Setting [4] is: 50 μg to the eye in Tocrisolve, 120 minutes.
The mark [5] stands for this setting: 100 μg to the eye in Tocrisolve, 30 minutes.
Setting [6] is: 100 μg to the eye in Tocrisolve, 60 minutes.
Where [7] appears, read: 100 μg to the eye in Tocrisolve, 90 minutes.
[8] abbreviates: 100 μg to the eye in Tocrisolve, 120 minutes.

Regarding `CCOC(=O)c1nn(-c2ccc(S(N)(=O)=O)cc2)c2c1CCc1sccc1-2` [Compound (XA), 1-(4′-sulphonamidophenyl)-4,5-dihydro-1H-thieno[2,3-g]indazol-3-ethyl carboxylate], the “Intraocular Pressure Decrease” value is recorded as −0.3% with old DBA/2J mice (setting [1]); −0.2% with old DBA/2J mice (setting [2]); 0.0% in the test with old DBA/2J mice (setting [3]); −0.1% with old DBA/2J mice (setting [4]); 0.0% in the test on old DBA/2J mice (setting [5]); −0.2% with old DBA/2J mice (setting [6]). In addition, the “Intraocular Pressure Decrease” value in the test on old DBA/2J mice (setting [7]) was −0.1%; in the test with old DBA/2J mice (setting [8]) it was 0.1%. Also, the “Reduction of intraocular pressure” value in the test with old DBA/2J mice (dose 50 μg) and with old DBA/2J mice (dose 100 μg) was “not able to significantly reduce the intraocular pressure” in each case.
For `NC(=O)c1nn(-c2ccc(S(N)(=O)=O)cc2)c2c1CCc1sccc1-2` [Compound (XB), 1-(4′-sulphonamidophenyl)-4,5-dihydro-1H-thieno[2,3-g]indazol-3-carboxamide], the “Intraocular Pressure Decrease” value in the test with old DBA/2J mice (setting [1]) is −0.2%; in the test on old DBA/2J mice (setting [2]) it was −0.1%; in the test on old DBA/2J mice (setting [3]), 0.0%; in the test with old DBA/2J mice (setting [4]) it was −0.1%; with old DBA/2J mice (setting [5]), −0.1%; with old DBA/2J mice (setting [6]), 0.4%. Besides, the “Intraocular Pressure Decrease” value with old DBA/2J mice (setting [7]) is recorded as −0.3%; with old DBA/2J mice (setting [8]), 0.0%. The “Reduction of intraocular pressure” value in the test with old DBA/2J mice (dose 50 μg) and in the test with old DBA/2J mice (dose 100 μg) was “not able to significantly reduce the intraocular pressure” throughout.
In the case of `Cc1ccc(Cn2nc(C(=O)NCC3CCC4CC3C4(C)C)c3c2-c2sc(C)cc2C3)cc1` (stereo not shown) [Example 3.1, N-myrtanyl-6-methyl-1-(4′-methylbenzyl)-1,4-dihydrothieno[3′,2′:4,5]cyclopenta[1,2-c]pyrazol-3-carboxamide], the “Reduction of body temperature versus the carrier” value in the test on mice (40 mg/Kg) was “significantly reduce the body temperature”. The “Body Temperature” value was determined as 37.9 °C with mice (0 minutes from administration); 36.1 °C in the test with mice (15 minutes from administration); 34.8 °C with mice (30 minutes from administration); 35.0 °C with mice (60 minutes from administration); 36.7 °C in the test with mice (90 minutes from administration); 37.2 °C in the test with mice (120 minutes from administration). Moreover, the “Intraocular Pressure Decrease” value is listed as 15.9% in the test on old DBA/2J mice (setting [1]); 15.0% in the test with old DBA/2J mice (setting [2]); 12.6% in the test on old DBA/2J mice (setting [3]); 11.7% in the test with old DBA/2J mice (setting [4]); 23.9% with old DBA/2J mice (setting [5]); 22.8% in the test with old DBA/2J mice (setting [6]). In addition, the “Intraocular Pressure Decrease” value in the test with old DBA/2J mice (setting [7]) worked out at 19.6%; with old DBA/2J mice (setting [8]), 21.7%. The results for the “Reduction of intraocular pressure” value with old DBA/2J mice (dose 50 μg) and with old DBA/2J mice (dose 100 μg) were “more effective in reducing IOP than the reference compound” and “as effective to reduce eye pressure as the reference compound WIN 55212-2”, respectively.
